Measurements: the supplement of paper PMC11451515

Tested on: NOMO1
Assay: cell viability relative to DMSO control; higher = less cytotoxic
Settings: 48 h
Summary of the method: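 In 1536-well plates, 5 μl of leukemia cells were seeded per well: 500 cells/well for NOMO1 or SEM and 1000 cells/well for P12-Ichikawa. Each line had first been adapted for at least four passages in each medium. Library compounds in DMSO were pin-dosed at 11 threefold concentrations between 47 μM and 0.79 nM, and CellTiter-Glo One luminescence was read after 48 h at 37°C. Viability is a per-plate percentage relative to DMSO wells, with cell-free wells as background.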

[1] = HPLM + 10% dialyzed FBS, 0.000781 µM
[2] = HPLM + 10% dialyzed FBS, 0.00234 µM
[3] = HPLM + 10% dialyzed FBS, 0.00702 µM
[4] = HPLM + 10% dialyzed FBS, 0.0211 µM
[5] = HPLM + 10% dialyzed FBS, 0.0632 µM
[6] = HPLM + 10% dialyzed FBS, 0.19 µM
[7] = HPLM + 10% dialyzed FBS, 0.569 µM
[8] = HPLM + 10% dialyzed FBS, 1.71 µM
[9] = HPLM + 10% dialyzed FBS, 5.12 µM
[10] = HPLM + 10% dialyzed FBS, 15.4 µM
[11] = HPLM + 10% dialyzed FBS, 46.1 µM
[12] = RPMI 5 mM glucose + 10% FBS, 0.000781 µM
[13] = RPMI 5 mM glucose + 10% FBS, 0.00234 µM
[14] = RPMI 5 mM glucose + 10% FBS, 0.00702 µM
[15] = RPMI 5 mM glucose + 10% FBS, 0.0211 µM
[16] = RPMI 5 mM glucose + 10% FBS, 0.0632 µM
[17] = RPMI 5 mM glucose + 10% FBS, 0.19 µM
[18] = RPMI 5 mM glucose + 10% FBS, 0.569 µM
[19] = RPMI 5 mM glucose + 10% FBS, 1.71 µM
[20] = RPMI 5 mM glucose + 10% FBS, 5.12 µM
[21] = RPMI 5 mM glucose + 10% FBS, 15.4 µM
[22] = RPMI 5 mM glucose + 10% FBS, 46.1 µM
[23] = RPMI 5 mM glucose + 10% dialyzed FBS, 0.000781 µM
[24] = RPMI 5 mM glucose + 10% dialyzed FBS, 0.00234 µM
[25] = RPMI 5 mM glucose + 10% dialyzed FBS, 0.00702 µM
[26] = RPMI 5 mM glucose + 10% dialyzed FBS, 0.0211 µM
[27] = RPMI 5 mM glucose + 10% dialyzed FBS, 0.0632 µM
[28] = RPMI 5 mM glucose + 10% dialyzed FBS, 0.19 µM
[29] = RPMI 5 mM glucose + 10% dialyzed FBS, 0.569 µM
[30] = RPMI 5 mM glucose + 10% dialyzed FBS, 1.71 µM
[31] = RPMI 5 mM glucose + 10% dialyzed FBS, 5.12 µM
[32] = RPMI 5 mM glucose + 10% dialyzed FBS, 15.4 µM
[33] = RPMI 5 mM glucose + 10% dialyzed FBS, 46.1 µM

Compound	cell viability [1]	cell viability [2]	cell viability [3]	cell viability [4]	cell viability [5]	cell viability [6]	cell viability [7]	cell viability [8]	cell viability [9]	cell viability [10]	cell viability [11]	cell viability [12]	cell viability [13]	cell viability [14]	cell viability [15]	cell viability [16]	cell viability [17]	cell viability [18]	cell viability [19]	cell viability [20]	cell viability [21]	cell viability [22]	cell viability [23]	cell viability [24]	cell viability [25]	cell viability [26]	cell viability [27]	cell viability [28]	cell viability [29]	cell viability [30]	cell viability [31]	cell viability [32]	cell viability [33]
COC(=O)[C@H](c1ccccc1Cl)N1CCc2sccc2C1	103%	110%	127%	117%	109%	104%	117%	37.4%	39.5%	24.8%	24.8%	87.8%	109%	89.1%	92.3%	103%	93.7%	97.4%	21.7%	20.9%	15.9%	14%	81%	90.5%	101%	94.4%	100%	103%	102%	36.6%	22.8%	23.6%	22.2%
Nc1ccc([S+](=O)([O-])Nc2ncccn2)cc1	115%	121%	130%	126%	136%	127%	129%	138%	142%	129%	120%	–	–	–	–	–	–	–	–	–	–	–	–	–	–	–	–	–	–	–	–	–	–
O=[S+]([O-])(NCCNC/C=C/c1ccc(Br)cc1)c1cccc2cnccc12	110%	114%	109%	81.5%	101%	105%	104%	97.5%	95.4%	79.3%	69.5%	98.4%	88.6%	92.8%	105%	91.3%	97.6%	96.1%	98.8%	84%	87.5%	85.6%	103%	100%	90.7%	78.4%	97.6%	89.9%	89.1%	85.3%	89.7%	74.3%	81.7%
Cc1cccc2c1CC[C@H](CN1CCC(c3c(Cl)cccc3Cl)CC1)C[C@@H]2O	99.8%	115%	116%	126%	133%	154%	150%	136%	116%	97.9%	83.9%	–	–	–	–	–	–	–	–	–	–	–	103%	124%	130%	148%	129%	145%	143%	103%	82%	70.2%	61.5%
C1COC(NC(C2CC2)C2CC2)=N1	73.1%	94%	93%	90.6%	92.3%	83.5%	97.3%	95.5%	94.8%	96.3%	64.8%	75.3%	92.5%	79.2%	87.6%	89.7%	90.8%	89.5%	80.1%	90.7%	91.1%	84.5%	79.2%	86.1%	83.9%	85%	86.4%	94.1%	97.6%	81.4%	82.7%	89.2%	73%
CCC(C1CCC(C)C(O1)C(C)C(O)C(C)C(=O)C(CC)C2OC\3(O[C@]4(CC[C@@](C)(O4)C5CC[C@@](O)(CC)C(C)O5)C(O)\C=C3)C(C)CC2C)C([O-])=O (stereo partly specified)	111%	121%	101%	91.2%	119%	109%	117%	68.6%	38%	27.3%	26.4%	90.5%	34.1%	99.9%	90.6%	114%	110%	97.1%	67.6%	19.7%	16.6%	15.3%	96.9%	78.6%	132%	153%	119%	75.1%	102%	36.2%	15.2%	13.5%	11%
CC(C)[N+]1(C)C2CCC1CC(OC(=O)C(CO)c1ccccc1)C2.O.[Br-] (stereo unspecified)	129%	118%	120%	117%	123%	119%	148%	134%	101%	58.8%	21.9%	103%	105%	95.1%	118%	108%	123%	101%	116%	109%	92.3%	48.6%	115%	115%	119%	110%	132%	114%	127%	121%	105%	93.2%	60.7%
CC(C)Cn1cnc2c(N)nc3ccccc3c21	120%	124%	120%	116%	118%	121%	117%	112%	94.5%	102%	89.4%	98.9%	110%	116%	109%	114%	103%	108%	103%	108%	95.3%	105%	112%	107%	102%	128%	109%	110%	115%	103%	96%	98.8%	100%
